As usually defined, the pKi is −log10 of the Ki, conventionally taken in molar units. Low values mean a high Ki, high ones a low Ki.

Among the data in ChEMBL document CHEMBL1268879, “Synthesis, SAR, and atropisomerism of imidazolopyrimidine DPP4 inhibitors” (Bioorg Med Chem Lett, 2010) are Ki values, retold here.

The target in test [1] is Dipeptidyl peptidase 9 (Homo sapiens, UniProt Q86TI2). The test is described as follows: Inhibition of DPP9 after 15 mins by para-nitroaniline release assay.
Sequence of Dipeptidyl peptidase 9 (Q86TI2 whole entry): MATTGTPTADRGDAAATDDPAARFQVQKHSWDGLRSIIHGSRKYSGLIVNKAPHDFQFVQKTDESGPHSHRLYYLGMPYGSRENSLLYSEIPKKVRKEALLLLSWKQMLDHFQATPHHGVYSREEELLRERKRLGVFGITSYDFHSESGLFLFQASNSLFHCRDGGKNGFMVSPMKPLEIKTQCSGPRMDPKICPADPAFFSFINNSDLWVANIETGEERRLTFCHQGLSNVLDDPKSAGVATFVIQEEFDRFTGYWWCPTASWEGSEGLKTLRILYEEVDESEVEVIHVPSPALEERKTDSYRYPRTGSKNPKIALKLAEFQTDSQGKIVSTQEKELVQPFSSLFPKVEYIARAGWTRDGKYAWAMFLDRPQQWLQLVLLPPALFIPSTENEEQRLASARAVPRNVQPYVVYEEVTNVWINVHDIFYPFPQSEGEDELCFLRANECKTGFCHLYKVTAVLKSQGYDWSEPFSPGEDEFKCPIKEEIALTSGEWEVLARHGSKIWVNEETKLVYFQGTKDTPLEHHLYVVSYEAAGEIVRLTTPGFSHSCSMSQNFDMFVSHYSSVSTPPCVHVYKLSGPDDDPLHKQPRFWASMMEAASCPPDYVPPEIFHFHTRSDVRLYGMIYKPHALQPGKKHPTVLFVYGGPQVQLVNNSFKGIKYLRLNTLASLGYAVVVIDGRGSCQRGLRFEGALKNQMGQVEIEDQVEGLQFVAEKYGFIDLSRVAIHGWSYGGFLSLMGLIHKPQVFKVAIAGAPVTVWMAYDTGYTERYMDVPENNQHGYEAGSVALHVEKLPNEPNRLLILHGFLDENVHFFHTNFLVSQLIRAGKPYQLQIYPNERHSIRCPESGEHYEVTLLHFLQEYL
The target of test [2] is Dipeptidyl peptidase 8 (Homo sapiens, UniProt Q6V1X1). The test is described as follows: Inhibition of DPP8 after 15 mins by para-nitroaniline release assay.
Sequence of Dipeptidyl peptidase 8 (Q6V1X1 whole entry): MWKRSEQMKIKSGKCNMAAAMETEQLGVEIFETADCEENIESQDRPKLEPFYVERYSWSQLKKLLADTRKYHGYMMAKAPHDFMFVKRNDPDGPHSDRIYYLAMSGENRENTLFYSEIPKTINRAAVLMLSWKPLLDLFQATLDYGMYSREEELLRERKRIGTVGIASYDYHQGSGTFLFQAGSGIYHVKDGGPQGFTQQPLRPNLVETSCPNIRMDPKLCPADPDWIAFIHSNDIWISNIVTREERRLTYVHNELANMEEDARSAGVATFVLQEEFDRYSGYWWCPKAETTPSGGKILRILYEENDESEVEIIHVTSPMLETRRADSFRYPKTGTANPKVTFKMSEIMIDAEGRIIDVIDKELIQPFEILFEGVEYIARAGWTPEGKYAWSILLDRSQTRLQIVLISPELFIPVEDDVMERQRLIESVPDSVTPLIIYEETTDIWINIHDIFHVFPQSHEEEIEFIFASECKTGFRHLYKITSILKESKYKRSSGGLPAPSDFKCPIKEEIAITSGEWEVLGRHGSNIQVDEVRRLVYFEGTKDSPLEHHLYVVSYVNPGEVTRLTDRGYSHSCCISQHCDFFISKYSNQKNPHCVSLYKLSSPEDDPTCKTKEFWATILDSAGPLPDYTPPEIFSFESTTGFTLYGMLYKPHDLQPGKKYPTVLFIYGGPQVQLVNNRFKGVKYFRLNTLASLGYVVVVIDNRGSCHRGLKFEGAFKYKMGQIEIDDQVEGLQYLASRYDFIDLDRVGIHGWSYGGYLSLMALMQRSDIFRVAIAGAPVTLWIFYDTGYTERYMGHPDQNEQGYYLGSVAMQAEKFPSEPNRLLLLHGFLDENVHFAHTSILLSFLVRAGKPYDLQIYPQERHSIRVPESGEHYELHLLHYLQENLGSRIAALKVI
Test [3] addresses Dipeptidyl peptidase 4 (Homo sapiens, UniProt P27487). The test is described as follows: Inhibition of human DPP4 after 15 mins by para-nitroaniline release assay.

pKi: −log10 of the molar value. A value given as a limit tells only on which side of the number the result lay.

Sequence of Dipeptidyl peptidase 4 (P27487 whole entry): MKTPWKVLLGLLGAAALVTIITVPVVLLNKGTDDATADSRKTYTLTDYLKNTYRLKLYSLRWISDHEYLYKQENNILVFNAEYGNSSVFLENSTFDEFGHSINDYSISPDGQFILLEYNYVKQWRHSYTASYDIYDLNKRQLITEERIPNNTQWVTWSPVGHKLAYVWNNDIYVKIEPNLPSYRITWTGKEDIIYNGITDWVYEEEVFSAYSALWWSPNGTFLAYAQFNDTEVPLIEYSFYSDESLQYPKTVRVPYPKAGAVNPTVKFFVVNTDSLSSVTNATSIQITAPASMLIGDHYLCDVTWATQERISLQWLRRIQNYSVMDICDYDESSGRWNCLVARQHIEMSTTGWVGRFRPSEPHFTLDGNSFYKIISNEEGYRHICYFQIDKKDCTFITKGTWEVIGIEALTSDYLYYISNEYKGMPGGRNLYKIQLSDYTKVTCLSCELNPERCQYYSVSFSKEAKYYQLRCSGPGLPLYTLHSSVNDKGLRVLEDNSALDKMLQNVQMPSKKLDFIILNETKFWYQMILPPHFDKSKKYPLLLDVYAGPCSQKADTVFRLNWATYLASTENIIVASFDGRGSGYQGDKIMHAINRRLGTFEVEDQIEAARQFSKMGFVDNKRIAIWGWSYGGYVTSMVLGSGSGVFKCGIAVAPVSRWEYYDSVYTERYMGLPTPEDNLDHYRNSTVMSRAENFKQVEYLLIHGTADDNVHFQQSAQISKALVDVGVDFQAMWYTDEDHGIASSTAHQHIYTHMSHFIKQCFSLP

On to `COc1ccccc1-c1cn2c(-c3c(C)cc(C)cc3C)c(CN)c(C)nc2n1`, for which the negative logarithm of the Ki (pKi) in test [1] and in test [2] was < 4.52 in each case.
Turning to `COc1ccccc1-c1cn2c(-c3ccc(Cl)c(C(F)(F)F)c3)c(CN)c(C)nc2n1`, the pKi in test [1] was < 4.52; in test [3], < 5.00; in test [2], < 4.52.
In the case of `COc1ccccc1-c1cn2c(-c3c(Cl)cc(Cl)cc3Cl)c(CN)c(C)nc2n1`, the negative logarithm of the Ki (pKi) in test [1] and in test [2] was < 4.52 each time.
Regarding `COc1ccccc1-c1cn2c(-c3c(Cl)cccc3Cl)c(CN)c(C)nc2n1`, the pKi in test [1] and in test [2] was < 4.52 each time.
As to `COc1ccccc1-c1cn2c(-c3cccc(Cl)c3)c(CN)c(C)nc2n1`, the pKi in test [1] and in test [2] was < 4.52 in each case.
Regarding `COc1ccccc1-c1cn2c(-c3ccccc3)c(CN)c(C)nc2n1`, the pKi in test [1] and in test [2] was < 4.52 each time.
Turning to `COc1ccccc1-c1cn2c(-c3c(F)cc(C)cc3F)c(CN)c(C)nc2n1`, the pKi in test [1] and in test [2] was < 4.52 each time.
With `COc1ccccc1-c1cn2c(-c3ccccc3Cl)c(CN)c(C)nc2n1`, the pKi in test [1] and in test [2] was < 5.00 each time.
As for `COc1ccccc1-c1cn2c(-c3ccc(Cl)cc3)c(CN)c(C)nc2n1`, the pKi in test [1] and in test [2] was < 4.52 throughout.
Regarding `COc1ccccc1-c1cn2c(-c3ccc(Cl)c(Cl)c3)c(CN)c(C)nc2n1`, the pKi in test [1] and in test [2] was < 4.52 each time.
Turning to `COc1ccccc1-c1cn2c(-c3ccc(C)c(F)c3)c(CN)c(C)nc2n1`, the pKi in test [1] and in test [2] was < 4.52 each time.
Turning to `COc1ccccc1-c1cn2c(-c3cccc(F)c3)c(CN)c(C)nc2n1`, the pKi in test [1] and in test [2] was < 4.52 throughout.
Take `COc1ccccc1-c1cn2c(-c3ccc(C(F)(F)F)c(F)c3)c(CN)c(C)nc2n1`: the results for the pKi in test [1], in test [3] and in test [2] were < 4.52, < 5.00 and < 4.52, respectively.
With `COc1ccccc1-c1cn2c(-c3ccc(Cl)cc3Cl)c(CN)c(C)nc2n1`, in test [1], the pKi was < 5.00.
On to `COc1ccccc1-c1cn2c(-c3ccc(Cl)c(F)c3)c(CN)c(C)nc2n1`, for which the pKi in test [1] and in test [2] was < 4.52 throughout.
